Key:
Type in all cases: functional, cell-based, Oocyte
[1] = target: Glutamate receptor ionotropic, NMDA 2B (Homo sapiens, UniProt Q05586+Q13224); test: Antagonistic activity against NR1A/2B receptor in frog oocytes
[2] = target: Glutamate receptor ionotropic, NMDA 2C (Homo sapiens, UniProt Q05586+Q14957); test: Antagonistic activity against NR1A/2C receptor in frog oocytes
[3] = target: Glutamate receptor ionotropic, NMDA 2A (Homo sapiens, UniProt Q05586+Q12879); test: Antagonistic activity against NR1A/2A receptors in frog oocytes
Sequence of Glutamate receptor ionotropic, NMDA 2A (Q12879 whole entry, one chain of several): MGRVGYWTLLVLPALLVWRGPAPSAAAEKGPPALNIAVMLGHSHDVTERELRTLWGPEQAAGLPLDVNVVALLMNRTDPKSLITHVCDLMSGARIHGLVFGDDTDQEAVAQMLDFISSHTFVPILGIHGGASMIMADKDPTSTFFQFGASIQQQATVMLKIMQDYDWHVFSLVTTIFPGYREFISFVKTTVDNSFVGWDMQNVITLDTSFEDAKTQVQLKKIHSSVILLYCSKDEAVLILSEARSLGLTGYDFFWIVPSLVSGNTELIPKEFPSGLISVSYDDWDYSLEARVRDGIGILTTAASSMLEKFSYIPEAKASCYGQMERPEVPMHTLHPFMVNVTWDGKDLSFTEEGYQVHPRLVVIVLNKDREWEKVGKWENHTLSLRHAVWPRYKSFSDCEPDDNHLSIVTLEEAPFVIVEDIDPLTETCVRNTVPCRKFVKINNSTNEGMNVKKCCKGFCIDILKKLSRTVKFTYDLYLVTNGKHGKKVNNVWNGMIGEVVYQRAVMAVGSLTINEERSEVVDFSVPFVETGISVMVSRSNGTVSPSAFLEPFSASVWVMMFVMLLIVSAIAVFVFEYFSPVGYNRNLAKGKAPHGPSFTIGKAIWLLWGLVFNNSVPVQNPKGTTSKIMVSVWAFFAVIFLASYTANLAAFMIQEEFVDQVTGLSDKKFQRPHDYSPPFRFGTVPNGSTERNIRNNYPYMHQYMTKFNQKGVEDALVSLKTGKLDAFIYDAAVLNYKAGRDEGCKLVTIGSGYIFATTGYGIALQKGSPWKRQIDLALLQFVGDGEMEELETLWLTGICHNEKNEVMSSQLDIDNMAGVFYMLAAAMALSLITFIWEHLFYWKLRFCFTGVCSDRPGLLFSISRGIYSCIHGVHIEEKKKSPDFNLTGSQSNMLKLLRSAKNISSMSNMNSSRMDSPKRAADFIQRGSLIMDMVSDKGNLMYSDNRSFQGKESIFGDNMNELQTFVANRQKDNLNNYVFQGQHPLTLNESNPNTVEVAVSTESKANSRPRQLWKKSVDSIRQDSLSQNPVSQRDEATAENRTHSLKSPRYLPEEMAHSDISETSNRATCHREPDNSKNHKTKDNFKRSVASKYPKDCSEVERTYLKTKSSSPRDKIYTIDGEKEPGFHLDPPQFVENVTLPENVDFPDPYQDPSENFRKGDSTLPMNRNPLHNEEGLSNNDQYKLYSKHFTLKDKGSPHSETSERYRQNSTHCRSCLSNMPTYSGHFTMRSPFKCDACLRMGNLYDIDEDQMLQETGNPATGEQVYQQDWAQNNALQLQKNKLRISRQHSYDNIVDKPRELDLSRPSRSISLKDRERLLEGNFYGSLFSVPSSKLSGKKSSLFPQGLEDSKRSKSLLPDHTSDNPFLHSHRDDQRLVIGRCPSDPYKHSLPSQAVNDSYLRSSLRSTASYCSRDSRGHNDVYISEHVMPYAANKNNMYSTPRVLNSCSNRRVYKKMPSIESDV

Sequence of Glutamate receptor ionotropic, NMDA 2B (Q13224 whole entry, one chain of several): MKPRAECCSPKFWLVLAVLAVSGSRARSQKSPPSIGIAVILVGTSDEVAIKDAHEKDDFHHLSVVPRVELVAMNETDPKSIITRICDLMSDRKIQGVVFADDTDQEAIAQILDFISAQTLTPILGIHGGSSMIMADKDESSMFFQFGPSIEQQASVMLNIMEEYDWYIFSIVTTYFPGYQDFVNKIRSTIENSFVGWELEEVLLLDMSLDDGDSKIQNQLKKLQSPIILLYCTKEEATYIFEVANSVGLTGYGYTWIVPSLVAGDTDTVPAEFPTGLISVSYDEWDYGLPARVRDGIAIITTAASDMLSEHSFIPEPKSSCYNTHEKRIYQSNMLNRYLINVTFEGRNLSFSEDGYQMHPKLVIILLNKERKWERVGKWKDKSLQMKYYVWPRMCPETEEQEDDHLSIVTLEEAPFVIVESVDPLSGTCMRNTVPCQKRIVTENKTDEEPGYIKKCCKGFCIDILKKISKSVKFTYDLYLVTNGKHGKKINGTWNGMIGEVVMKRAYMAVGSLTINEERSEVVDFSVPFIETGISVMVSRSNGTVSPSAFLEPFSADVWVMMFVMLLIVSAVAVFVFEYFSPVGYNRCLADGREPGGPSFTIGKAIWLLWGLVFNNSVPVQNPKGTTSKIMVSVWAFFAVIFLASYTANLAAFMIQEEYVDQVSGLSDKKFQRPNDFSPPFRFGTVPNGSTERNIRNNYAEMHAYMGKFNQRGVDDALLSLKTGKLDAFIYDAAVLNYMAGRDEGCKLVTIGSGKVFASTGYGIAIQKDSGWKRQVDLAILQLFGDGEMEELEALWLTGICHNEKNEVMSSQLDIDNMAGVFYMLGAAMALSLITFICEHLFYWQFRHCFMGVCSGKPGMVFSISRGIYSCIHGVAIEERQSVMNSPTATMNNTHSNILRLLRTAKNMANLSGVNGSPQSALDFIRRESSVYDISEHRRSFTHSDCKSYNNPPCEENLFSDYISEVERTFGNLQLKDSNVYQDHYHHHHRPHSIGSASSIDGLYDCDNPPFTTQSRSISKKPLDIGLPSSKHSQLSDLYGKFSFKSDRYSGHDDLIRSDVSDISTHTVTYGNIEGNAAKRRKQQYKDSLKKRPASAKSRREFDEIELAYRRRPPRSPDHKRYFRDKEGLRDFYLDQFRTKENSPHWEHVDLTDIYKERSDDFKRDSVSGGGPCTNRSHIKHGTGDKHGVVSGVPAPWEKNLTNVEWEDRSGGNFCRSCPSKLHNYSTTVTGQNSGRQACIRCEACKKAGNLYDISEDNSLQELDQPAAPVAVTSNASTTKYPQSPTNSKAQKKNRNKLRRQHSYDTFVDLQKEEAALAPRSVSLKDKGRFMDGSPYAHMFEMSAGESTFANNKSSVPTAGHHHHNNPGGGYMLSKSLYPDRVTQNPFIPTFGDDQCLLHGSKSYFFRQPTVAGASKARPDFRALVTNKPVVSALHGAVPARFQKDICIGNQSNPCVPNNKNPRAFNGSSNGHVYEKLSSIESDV
Sequence of Glutamate receptor ionotropic, NMDA 2C (Q14957 whole entry, one chain of several): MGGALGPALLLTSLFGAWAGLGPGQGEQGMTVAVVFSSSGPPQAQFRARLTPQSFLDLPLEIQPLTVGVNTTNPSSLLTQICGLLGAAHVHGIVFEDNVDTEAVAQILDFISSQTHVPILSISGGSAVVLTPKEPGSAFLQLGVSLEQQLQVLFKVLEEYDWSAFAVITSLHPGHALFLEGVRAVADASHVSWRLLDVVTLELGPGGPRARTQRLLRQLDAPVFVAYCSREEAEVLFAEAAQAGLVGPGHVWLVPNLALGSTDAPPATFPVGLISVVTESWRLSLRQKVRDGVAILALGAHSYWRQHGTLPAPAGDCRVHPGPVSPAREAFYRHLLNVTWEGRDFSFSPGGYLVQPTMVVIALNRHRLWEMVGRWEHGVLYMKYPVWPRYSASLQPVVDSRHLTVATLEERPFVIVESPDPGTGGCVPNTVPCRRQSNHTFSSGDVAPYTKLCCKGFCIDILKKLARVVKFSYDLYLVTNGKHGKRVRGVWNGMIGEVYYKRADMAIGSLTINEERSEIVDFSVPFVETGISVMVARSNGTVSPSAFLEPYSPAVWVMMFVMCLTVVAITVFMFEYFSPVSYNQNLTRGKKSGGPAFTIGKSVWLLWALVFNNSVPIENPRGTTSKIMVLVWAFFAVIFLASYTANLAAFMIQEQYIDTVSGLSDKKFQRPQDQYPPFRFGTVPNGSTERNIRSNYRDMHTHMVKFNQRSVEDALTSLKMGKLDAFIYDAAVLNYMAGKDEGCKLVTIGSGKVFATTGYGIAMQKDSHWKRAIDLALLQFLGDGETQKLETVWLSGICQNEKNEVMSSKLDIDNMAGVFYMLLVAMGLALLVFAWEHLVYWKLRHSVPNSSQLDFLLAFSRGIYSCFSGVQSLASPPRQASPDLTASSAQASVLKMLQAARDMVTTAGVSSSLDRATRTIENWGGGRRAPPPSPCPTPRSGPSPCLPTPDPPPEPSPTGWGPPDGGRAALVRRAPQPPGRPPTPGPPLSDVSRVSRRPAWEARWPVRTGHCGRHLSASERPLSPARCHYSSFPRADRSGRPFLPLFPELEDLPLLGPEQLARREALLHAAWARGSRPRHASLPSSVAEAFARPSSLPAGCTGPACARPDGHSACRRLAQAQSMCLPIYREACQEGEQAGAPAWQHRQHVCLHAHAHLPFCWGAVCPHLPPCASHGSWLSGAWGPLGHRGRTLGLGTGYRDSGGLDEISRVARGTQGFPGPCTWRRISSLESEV

Row | SMILES | IC50 [1] | IC50 [2] | IC50 [3]
1 | O=[N+]([O-])c1ccc2nc(SCCCN3CCC(Cc4ccccc4)CC3)[nH]c2c1 | 0.91 µM | > 100 µM | 61 µM
2 | Cc1nnc(SCCCN2CCC(Cc3ccccc3)CC2)s1 | 6.4 µM | > 100 µM | > 100 µM
3 | c1ccc(CC2CCN(CCCSc3nc4ccccc4[nH]3)CC2)cc1 | 1 µM | 51 µM | 64 µM
4 | c1ccc(CC2CCN(CCCSc3ccccc3)CC2)cc1 | 4.3 µM | > 100 µM | 
5 | O=[N+]([O-])c1ccc2[nH]c(SCCN3CCC(Cc4ccccc4)CC3)nc2c1 | 7.4 µM | > 100 µM | > 100 µM
6 | c1ccc(CC2CCN(CCCSc3nc4ncccc4[nH]3)CC2)cc1 | 1.6 µM | > 100 µM | > 100 µM
7 | Nc1n[nH]c(SCCCN2CCC(Cc3ccccc3)CC2)n1 | 0.63 µM | > 100 µM | 77 µM
8 | c1ccc(CC2CCN(CCCSc3nnc[nH]3)CC2)cc1 | 0.63 µM | > 100 µM | 51 µM
9 | c1ccc(CC2CCN(CCSc3ccccc3)CC2)cc1 | 0.93 µM | > 100 µM | > 100 µM
10 | Cc1n[nH]c(SCCCN2CCC(Cc3ccccc3)CC2)n1 | 1 µM | > 100 µM | > 100 µM
11 | Cc1nnc(SCCN2CCC(Cc3ccccc3)CC2)s1 | 4.8 µM | > 100 µM | > 100 µM

Molecules with a lower IC50 [1], results first:

Row | IC50 [1] | IC50 [2] | IC50 [3] | SMILES
12 | 0.61 µM | > 100 µM | 77 µM | c1ccc(CC2CCN(CCCSc3ncc[nH]3)CC2)cc1
13 | 0.56 µM | > 100 µM | 73 µM | Nc1nnc(SCCCN2CCC(Cc3ccccc3)CC2)s1
14 | 0.38 µM | > 100 µM |  | c1ccc(CC2CCN(CCSc3nc4ccccc4[nH]3)CC2)cc1
15 | 0.24 µM | > 100 µM | > 100 µM | c1ccc(CC2CCN(CCSc3nc4ncccc4[nH]3)CC2)cc1
16 | 0.21 µM | > 100 µM | > 100 µM | Nc1nnc(SCCN2CCC(Cc3ccccc3)CC2)s1
17 | 0.15 µM | > 100 µM | > 100 µM | Cc1n[nH]c(SCCN2CCC(Cc3ccccc3)CC2)n1
18 | 0.13 µM | > 100 µM | > 100 µM | c1ccc(CC2CCN(CCSc3nc[nH]n3)CC2)cc1
19 | 0.1 µM | > 100 µM | 35 µM | Oc1ccc(SCCN2CCC(Cc3ccccc3)CC2)cc1
20 | 0.1 µM | > 100 µM | > 100 µM | Oc1ccc(C#CCCN2CCC(Cc3ccccc3)CC2)cc1
21 | 0.07 µM | > 100 µM | > 100 µM | c1ccc(CC2CCN(CCSc3ncc[nH]3)CC2)cc1
22 | 0.035 µM | > 100 µM | > 100 µM | Nc1nnc(SCCN2CCC(Cc3ccccc3)CC2)[nH]1
